Reference: the NIST ThermoML archive (doi:10.1016/j.jct.2011.07.008)

Legend:
[1] = mn = molality of the nth substance listed, in mol/kg; conditions: 101 kPa, Liquid; for viscosity: Capillary tube (Ostwald / Ubbelohde) method
[2] = 298.15 K; 101.33 kPa; Liquid; Pycnometric method
[3] = refractive index (Na D-line) (dimensionless); conditions: 298.15 K; 101.33 kPa; Liquid; Standard Abbe refractometry

COCCO [2-methoxyethan-1-ol] + O
[1]
Conditions	viscosity [mPa·s]
275.15 K, m1 = 0.0097	1.006
275.15 K, m1 = 0.0205	1.011
275.15 K, m1 = 0.0313	1.016
275.15 K, m1 = 0.0393	1.02
275.15 K, m1 = 0.0487	1.023
275.15 K, m1 = 0.0638	1.028
275.15 K, m1 = 0.0719	1.03
275.15 K, m1 = 0.0813	1.032
275.15 K, m1 = 0.0905	1.034
275.15 K, m1 = 0.102	1.035
283.15 K, m1 = 0.0104	1.001
283.15 K, m1 = 0.0193	1.002
283.15 K, m1 = 0.0326	1.005
283.15 K, m1 = 0.0417	1.006
283.15 K, m1 = 0.0492	1.008
283.15 K, m1 = 0.0599	1.011
283.15 K, m1 = 0.0698	1.013
283.15 K, m1 = 0.0804	1.016
283.15 K, m1 = 0.0893	1.019
283.15 K, m1 = 0.0901	1.019
283.15 K, m1 = 0.1	1.023
283.15 K, m1 = 0.1013	1.023

[1]
Conditions	mass density [kg/m3]
275.15 K, Pycnometric method, m1 = 0.0097	999.96
275.15 K, Pycnometric method, m1 = 0.0205	999.99
275.15 K, Pycnometric method, m1 = 0.0313	999.99
275.15 K, Pycnometric method, m1 = 0.0393	1000.02
275.15 K, Pycnometric method, m1 = 0.0487	1000.07
275.15 K, Pycnometric method, m1 = 0.0638	1000.09
275.15 K, Pycnometric method, m1 = 0.0719	1000.1
275.15 K, Pycnometric method, m1 = 0.0813	1000.12
275.15 K, Pycnometric method, m1 = 0.0905	1000.12
275.15 K, Pycnometric method, m1 = 0.102	1000.17
283.15 K, Buoyancy - hydrostatic balance with magnetic suspension - one sinker, m1 = 0.0104	999.73
283.15 K, Buoyancy - hydrostatic balance with magnetic suspension - one sinker, m1 = 0.0193	999.73
283.15 K, Buoyancy - hydrostatic balance with magnetic suspension - one sinker, m1 = 0.0326	999.76
283.15 K, Buoyancy - hydrostatic balance with magnetic suspension - one sinker, m1 = 0.0417	999.81
283.15 K, Buoyancy - hydrostatic balance with magnetic suspension - one sinker, m1 = 0.0492	999.79
283.15 K, Buoyancy - hydrostatic balance with magnetic suspension - one sinker, m1 = 0.0599	999.88
283.15 K, Buoyancy - hydrostatic balance with magnetic suspension - one sinker, m1 = 0.0698	999.93
283.15 K, Buoyancy - hydrostatic balance with magnetic suspension - one sinker, m1 = 0.0804	999.91
283.15 K, Buoyancy - hydrostatic balance with magnetic suspension - one sinker, m1 = 0.0893	999.94
283.15 K, Buoyancy - hydrostatic balance with magnetic suspension - one sinker, m1 = 0.0901	999.94
283.15 K, Buoyancy - hydrostatic balance with magnetic suspension - one sinker, m1 = 0.1	999.95
283.15 K, Buoyancy - hydrostatic balance with magnetic suspension - one sinker, m1 = 0.1013	999.97

CCOCCOCCO [3,6-dioxa-1-octanol]
Conditions	mass density [kg/m3]	refractive index
[2]	984.045	–
[3]	–	1.4253

CCOCCOCCO [3,6-dioxa-1-octanol] + O
viscosity [mPa·s], [1]
Conditions	275.15 K	283.15 K
m1 = 0.0092	–	1.004
m1 = 0.0108	1.008	–
m1 = 0.019	–	1.008
m1 = 0.0203	1.015	–
m1 = 0.0291	–	1.013
m1 = 0.0306	1.022	–
m1 = 0.0409	1.029	–
m1 = 0.0416	–	1.019
m1 = 0.0482	–	1.023
m1 = 0.0504	1.035	–
m1 = 0.062	–	1.03
m1 = 0.0625	1.043	–
m1 = 0.0687	–	1.034
m1 = 0.0707	1.048	–
m1 = 0.0796	–	1.041
m1 = 0.0809	1.053	–
m1 = 0.0904	1.058	1.047
m1 = 0.091	–	1.047
m1 = 0.0998	–	1.053
m1 = 0.1019	–	1.054
m1 = 0.1025	1.047	–

[1]
Conditions	mass density [kg/m3]
275.15 K, Pycnometric method, m1 = 0.0108	1000.05
275.15 K, Pycnometric method, m1 = 0.0203	1000.15
275.15 K, Pycnometric method, m1 = 0.0306	1000.23
275.15 K, Pycnometric method, m1 = 0.0409	1000.34
275.15 K, Pycnometric method, m1 = 0.0504	1000.42
275.15 K, Pycnometric method, m1 = 0.0625	1000.52
275.15 K, Pycnometric method, m1 = 0.0707	1000.62
275.15 K, Pycnometric method, m1 = 0.0809	1000.69
275.15 K, Pycnometric method, m1 = 0.0904	1000.79
275.15 K, Pycnometric method, m1 = 0.1025	1000.86
283.15 K, Buoyancy - hydrostatic balance with magnetic suspension - one sinker, m1 = 0.0092	999.77
283.15 K, Buoyancy - hydrostatic balance with magnetic suspension - one sinker, m1 = 0.019	999.8
283.15 K, Buoyancy - hydrostatic balance with magnetic suspension - one sinker, m1 = 0.0291	999.96
283.15 K, Buoyancy - hydrostatic balance with magnetic suspension - one sinker, m1 = 0.0416	1000.08
283.15 K, Buoyancy - hydrostatic balance with magnetic suspension - one sinker, m1 = 0.0482	1000.09
283.15 K, Buoyancy - hydrostatic balance with magnetic suspension - one sinker, m1 = 0.062	1000.22
283.15 K, Buoyancy - hydrostatic balance with magnetic suspension - one sinker, m1 = 0.0687	1000.23
283.15 K, Buoyancy - hydrostatic balance with magnetic suspension - one sinker, m1 = 0.0796	1000.34
283.15 K, Buoyancy - hydrostatic balance with magnetic suspension - one sinker, m1 = 0.0904	1000.41
283.15 K, Buoyancy - hydrostatic balance with magnetic suspension - one sinker, m1 = 0.091	1000.39
283.15 K, Buoyancy - hydrostatic balance with magnetic suspension - one sinker, m1 = 0.0998	1000.48
283.15 K, Buoyancy - hydrostatic balance with magnetic suspension - one sinker, m1 = 0.1019	1000.46

O [water] + CCOCCO
[1], m2 = 0
Conditions	viscosity [mPa·s]
275.15 K	1.674
283.15 K	1.31

[1], m2 = 0
Conditions	mass density [kg/m3]
275.15 K, Pycnometric method	999.94
283.15 K, Buoyancy - hydrostatic balance with magnetic suspension - one sinker	999.7

O [water] + CCOCCOCCO
[1], m2 = 0
Conditions	viscosity [mPa·s]
275.15 K	1.674
283.15 K	1.31

[1], m2 = 0
Conditions	mass density [kg/m3]
275.15 K, Pycnometric method	999.94
283.15 K, Buoyancy - hydrostatic balance with magnetic suspension - one sinker	999.7

O [water] + COCCO
[1], m2 = 0
Conditions	viscosity [mPa·s]
275.15 K	1.674
283.15 K	1.31

[1], m2 = 0
Conditions	mass density [kg/m3]
275.15 K, Pycnometric method	999.94
283.15 K, Buoyancy - hydrostatic balance with magnetic suspension - one sinker	999.7

O [water] + COCCOCCO
[1], m2 = 0
Conditions	viscosity [mPa·s]
275.15 K	1.674
283.15 K	1.31

[1], m2 = 0
Conditions	mass density [kg/m3]
275.15 K, Pycnometric method	999.94
283.15 K, Buoyancy - hydrostatic balance with magnetic suspension - one sinker	999.7
